Test results as given in patent publication US7507739B2, “6-[(substituted)phenyl]triazolopyrimidines as anticancer agents” (Wyeth, priority 2003, dated 2009).

Key:
[1] = test system: COLO 205 cells; experiment: MTS cytotoxicity test with COLO 205 cells; format: cell-based, human; settings: Homo sapiens, COLO 205, 72 h, 3 days
Method: The assay, which is sold in kit form by Promega (Madison, Wis.; CellTiter 96 AQueous Non-Radioactive Cell Proliferation Assay), is based on the conversion by viable cells, but not by dead cells, of the tetrazolium salt, MTS (3-(4,5-dimethylthiazol-2-yl)-5-(3-carboxymethoxyphenyl)-2-(4-sulphophenyl)-2H-tetrazolium, inner salt), into a water-soluble colored formazan which is detected by spectrophotometry. Compounds are tested at nine concentrations, in order to determine IC50 values. For the test procedure, cells are harvested by trypsinization (or, in the case of non-adherent cells, by simple resuspension), washed, counted and distributed to wells of 96-well flat-bottom microtiter plates at 1000 cells per well in 200 μL of medium. In addition, one row of wells on a separate plate received cells as above (“time 0” plate). All plates are incubated at 37° in humidified 5% CO2 in air for about 24 hr.
On day 2, compounds for test are diluted and added to wells. Compounds are dissolved in DMSO at 10 mg/mL. For each compound, nine serial 2-fold dilutions are prepared in DMSO. Ten μL of each dilution in DMSO is transferred to 100 μL of medium, mixed well, and then 5 μL of this dilution is transferred in quadruplicate to wells containing cells. The final high concentration of each compound is typically 5 μM. Plates are returned to the incubator for three days. At the time of drug addition to the experimental plates, the MTS assay is run on the “time 0” plate. This produced the “time 0 MTS value” which is related to the number of viable cells per well at the time of drug addition.
After three days of culture with test compounds (day 5 overall), the MTS assay is done on all wells of the experimental plates. The absorbance values of the quadruplicate sample wells are averaged and divided by the average of the “time 0” values. The average of control wells without drug, divided by the average “time 0” value, gave the maximal relative increase in MTS color yield due to cell growth during the final three days of culture. The average of control wells with high drug concentration, divided by the “time 0” value, gave the minimal relative color yield for cells that are completely killed. The nine values for each compound are plotted against concentration, and the concentration that produced a relative color yield half way between the maximum and minimum is taken as the IC50 value.
COLO 205 is a human colon carcinoma cell line that is used for comparative testing of the examples of this invention and several reference compounds. This line is sensitive to paclitaxel and vincristine.

[2] = test system: pure tubulin; experiment: Tubulin polymerization test with pure tubulin without GTP; format: biochemical, bovine; settings: no GTP
Method: Medium is RPMI-1640 with L-glutamine, supplemented with 10% heat-inactivated fetal calf serum, 100 units/ml penicillin, and 100 μg/ml streptomycin (Gibco, Grand Island, N.Y.). Microtubule-associated protein (MAP)-rich tubulin, containing about 70% tubulin and 30% MAPs (#ML113), and highly purified tubulin (>99% pure, #TL238), both from bovine brain, are obtained from Cytoskeleton, Inc., Denver, Colo. PEM buffer (80 mM piperazine-N,N′-bis[2-ethanesulfonic acid], pH 6.9, 1 mM ethylene glycol-bis(β-aminoethyl ether)-N,N,N′,N′-tetraacetic acid, 1 mM magnesium chloride) and guanosine 5′-triphosphate (GTP) are also obtained from Cytoskeleton. [3H]paclitaxel, specific activity 14.7 Ci/mmol, is purchased from Moravek Biochemicals (Brea, Calif.). [^3H]vinblastine, specific activity 9.60 Ci/mmol and MicroSpin G-50 columns are obtained from Amersham Biosciences (Piscataway, N.J.). […] Other reagents are obtained from Sigma (St. Louis, Mo.).
Two variations of this procedure are done, one using MAP-rich tubulin and one using pure tubulin.
The procedure with pure tubulin is similar except for the following changes. […] The supernatant after centrifugation is dispensed to a 96-well plate already containing compounds. Each compound is tested in duplicate at six serial 3-fold dilutions starting at 24.3 μM. The plate reader is thermostated at 35°.

[3] = test system: HeLa cells; experiment: Cell cycle analysis with HeLa cells; format: cell-based, human; settings: 18 hr
Method: HeLa cells are harvested by trypsinization, washed, counted and distributed to wells of 12-well plates at 125,000 cells per well in 2 mL medium. Cells are cultured overnight. […] Cells are continued in culture for 18 hr after compound addition, then cells in each well are harvested (taking care to recover both adherent and non-adherent cells) and processed using the CycleTEST PLUS kit (Becton Dickinson Immunocytometry Systems, San Jose, Calif.). Flow cytometry is done with a FACSort instrument (Becton Dickinson).
This procedure measures the percentages of cells in a population that are in the G1, S, and G2/M phases of the cell cycle. It utilizes staining of cell nuclei with propidium iodide and analysis by flow cytometry.

SMILES: C[C@H](Nc1c(-c2c(F)cc(OCCCN3CCOCC3)cc2F)c(Cl)nc2ncnn12)C(F)(F)F [Example 11, 5-Chloro-6-[2,6-difluoro-4-(3-morpholin-4-ylpropoxy)phenyl]-N-[(1S)-2,2,2-trifluoro-1-methylethyl][1,2,4]triazolo[1,5-a]pyrimidin-7-amine]
- IC50 [1]: 89 nM

SMILES: C[C@H](Nc1c(-c2c(F)ccc(OCCCN(C)C)c2F)c(Cl)nc2ncnn12)C(F)(F)F [Example 28, 5-Chloro-6-{3-[3-(dimethylamino)propoxy]-2,6-difluorophenyl}-N-[(1S)-2,2,2-trifluoro-1-methylethyl][1,2,4]triazolo[1,5-a]pyrimidin-7-amine]
- IC50 [1]: 785 nM

SMILES: CNCCCOc1cc(F)c(-c2c(Cl)nc3ncnn3c2N[C@H](C)C(F)(F)F)c(F)c1 [Example 33, 5-Chloro-6-{2,6-difluoro-4-[3-(methylamino)propoxy]phenyl}-N-[(1R)-2,2,2-trifluoro-1-methylethyl][1,2,4]triazolo[1,5-a]pyrimidin-7-amine]
- IC50 [1]: 126 nM

SMILES: C[C@H](Nc1c(-c2c(F)cc(OCCCN)cc2F)c(Cl)nc2ncnn12)C(F)(F)F [Example 5, 6-[4-(3-Aminopropoxy)-2,6-difluorophenyl]-5-chloro-N-[(1S)-2,2,2-trifluoro-1-methylethyl][1,2,4]triazolo[1,5-a]pyrimidin-7-amine]
- IC50 [1]: 452 nM

SMILES: CC(=O)O[C@@]12CO[C@@H]1C[C@H](O)[C@@]1(C)C(=O)[C@H](O)C3=C(C)[C@@H](OC(=O)[C@H](O)[C@@H](NC(=O)OC(C)(C)C)c4ccccc4)C[C@@](O)([C@@H](OC(=O)c4ccccc4)[C@H]21)C3(C)C [Docetaxel, reference compound]
- absorbance increase, polymerization of pure tubulin ([2]; 0.1 μM): small increase in absorbance
- A340 at 0 min ([2]; 24.3 μM): 0
- A340 at 5 min ([2]; 24.3 μM): 0.20
- A340 at 10 min ([2]; 24.3 μM): 0.20
- A340 at 15 min ([2]; 24.3 μM): 0.20
- A340 at 20 min ([2]; 24.3 μM): 0.20
- absorbance increase, polymerization of pure tubulin ([2]; 24.3 μM, first 5 min): rapid increase in absorbance
- Percent in Cell Cycle Phase >4N ([3]; 0.25 nM): 2%
- Percent in Cell Cycle Phase Apop ([3]; 0.25 nM): 8%
- Percent in Cell Cycle Phase G1 ([3]; 0.25 nM): 58%
- Percent in Cell Cycle Phase G2/M ([3]; 0.25 nM): 16%
- Percent in Cell Cycle Phase S ([3]; 0.25 nM): 17%
- Percent in Cell Cycle Phase >4N ([3]; 0.5 nM): 2%
- Percent in Cell Cycle Phase Apop ([3]; 0.5 nM): 19%
- Percent in Cell Cycle Phase G1 ([3]; 0.5 nM): 48%
- Percent in Cell Cycle Phase G2/M ([3]; 0.5 nM): 14%
- Percent in Cell Cycle Phase S ([3]; 0.5 nM): 18%
- Percent in Cell Cycle Phase >4N ([3]; 1 nM): 2%
- Percent in Cell Cycle Phase Apop ([3]; 1 nM): 35%
- Percent in Cell Cycle Phase G1 ([3]; 1 nM): 35%
- Percent in Cell Cycle Phase G2/M ([3]; 1 nM): 14%
- Percent in Cell Cycle Phase S ([3]; 1 nM): 15%
- Percent in Cell Cycle Phase >4N ([3]; 2 nM): 2%
- Percent in Cell Cycle Phase Apop ([3]; 2 nM): 48%
- Percent in Cell Cycle Phase G1 ([3]; 2 nM): 19%
- Percent in Cell Cycle Phase G2/M ([3]; 2 nM): 14%
- Percent in Cell Cycle Phase S ([3]; 2 nM): 18%
- Percent in Cell Cycle Phase >4N ([3]; 3 nM): 2%
- Percent in Cell Cycle Phase Apop ([3]; 3 nM): 52%
- Percent in Cell Cycle Phase G1 ([3]; 3 nM): 15%
- Percent in Cell Cycle Phase G2/M ([3]; 3 nM): 14%
- Percent in Cell Cycle Phase S ([3]; 3 nM): 17%
- Percent in Cell Cycle Phase >4N ([3]; 4 nM): 2%
- Percent in Cell Cycle Phase Apop ([3]; 4 nM): 49%
- Percent in Cell Cycle Phase G1 ([3]; 4 nM): 12%
- Percent in Cell Cycle Phase G2/M ([3]; 4 nM): 22%
- Percent in Cell Cycle Phase S ([3]; 4 nM): 16%
- Percent in Cell Cycle Phase >4N ([3]; 5 nM): 3%
- Percent in Cell Cycle Phase Apop ([3]; 5 nM): 42%
- Percent in Cell Cycle Phase G1 ([3]; 5 nM): 9%
- Percent in Cell Cycle Phase G2/M ([3]; 5 nM): 31%
- Percent in Cell Cycle Phase S ([3]; 5 nM): 17%
- Percent in Cell Cycle Phase >4N ([3]; 6 nM): 4%
- Percent in Cell Cycle Phase Apop ([3]; 6 nM): 37%
- Percent in Cell Cycle Phase G1 ([3]; 6 nM): 10%
- Percent in Cell Cycle Phase G2/M ([3]; 6 nM): 33%
- Percent in Cell Cycle Phase S ([3]; 6 nM): 17%
- Percent in Cell Cycle Phase >4N ([3]; 8 nM): 4%
- Percent in Cell Cycle Phase Apop ([3]; 8 nM): 29%
- Percent in Cell Cycle Phase G1 ([3]; 8 nM): 7%
- Percent in Cell Cycle Phase G2/M ([3]; 8 nM): 48%
- Percent in Cell Cycle Phase S ([3]; 8 nM): 11%
- Percent in Cell Cycle Phase >4N ([3]; 10 nM): 4%
- Percent in Cell Cycle Phase Apop ([3]; 10 nM): 35%
- Percent in Cell Cycle Phase G1 ([3]; 10 nM): 9%
- Percent in Cell Cycle Phase G2/M ([3]; 10 nM): 37%
- Percent in Cell Cycle Phase S ([3]; 10 nM): 16%
- Percent in Cell Cycle Phase >4N ([3]; 20 nM): 3%
- Percent in Cell Cycle Phase Apop ([3]; 20 nM): 38%
- Percent in Cell Cycle Phase G1 ([3]; 20 nM): 8%
- Percent in Cell Cycle Phase G2/M ([3]; 20 nM): 40%
- Percent in Cell Cycle Phase S ([3]; 20 nM): 12%

SMILES: C[C@H](Nc1c(-c2c(F)cc(OCCO)cc2F)c(Cl)nc2ncnn12)C(F)(F)F [Example 19, 2-[4-(5-Chloro-7-{[(1S)-2,2,2-trifluoro-1-methylethyl]amino}[1,2,4]triazolo[1,5-a]pyrimidin-6-yl)-3,5-difluorophenoxy]ethanol]
- IC50 [1]: 422 nM

SMILES: CN(C)CCCOc1cc(F)c(-c2c(Cl)nc3ncnn3c2C2CCCCCC2)c(F)c1 [Example 31, 3-[4-(5-Chloro-7-cycloheptyl[1,2,4]triazolo[1,5-a]pyrimidin-6-yl)-3,5-difluorophenoxy]-N,N-dimethylpropan-1-amine]
- IC50 [1]: 19 nM

SMILES: COc1cc2c(c(OC)c1OC)-c1ccc(OC)c(=O)cc1[C@@H](NC(C)=O)CC2 [Colchicine, reference compound]
- Percent in Cell Cycle Phase >4N ([3]; 5 nM): 2%
- Percent in Cell Cycle Phase Apop ([3]; 5 nM): 6%
- Percent in Cell Cycle Phase G1 ([3]; 5 nM): 60%
- Percent in Cell Cycle Phase G2/M ([3]; 5 nM): 16%
- Percent in Cell Cycle Phase S ([3]; 5 nM): 17%
- Percent in Cell Cycle Phase >4N ([3]; 10 nM): 2%
- Percent in Cell Cycle Phase Apop ([3]; 10 nM): 7%
- Percent in Cell Cycle Phase G1 ([3]; 10 nM): 59%
- Percent in Cell Cycle Phase S ([3]; 10 nM): 16%
- Percent in Cell Cycle Phase >4N ([3]; 15 nM): 2%
- Percent in Cell Cycle Phase Apop ([3]; 15 nM): 9%
- Percent in Cell Cycle Phase G1 ([3]; 15 nM): 50%
- Percent in Cell Cycle Phase G2/M ([3]; 15 nM): 23%
- Percent in Cell Cycle Phase S ([3]; 15 nM): 17%
- Percent in Cell Cycle Phase >4N ([3]; 17.5 nM): 2%
- Percent in Cell Cycle Phase Apop ([3]; 17.5 nM): 9%
- Percent in Cell Cycle Phase G1 ([3]; 17.5 nM): 51%
- Percent in Cell Cycle Phase G2/M ([3]; 17.5 nM): 21%
- Percent in Cell Cycle Phase >4N ([3]; 20 nM): 2%
- Percent in Cell Cycle Phase Apop ([3]; 20 nM): 13%
- Percent in Cell Cycle Phase G1 ([3]; 20 nM): 40%
- Percent in Cell Cycle Phase G2/M ([3]; 20 nM): 28%
- Percent in Cell Cycle Phase >4N ([3]; 25 nM): 3%
- Percent in Cell Cycle Phase Apop ([3]; 25 nM): 14%
- Percent in Cell Cycle Phase G1 ([3]; 25 nM): 36%
- Percent in Cell Cycle Phase G2/M ([3]; 25 nM): 27%
- Percent in Cell Cycle Phase S ([3]; 25 nM): 20%
- Percent in Cell Cycle Phase >4N ([3]; 30 nM): 3%
- Percent in Cell Cycle Phase Apop ([3]; 30 nM): 14%
- Percent in Cell Cycle Phase G1 ([3]; 30 nM): 27%
- Percent in Cell Cycle Phase G2/M ([3]; 30 nM): 36%
- Percent in Cell Cycle Phase S ([3]; 30 nM): 20%
- Percent in Cell Cycle Phase >4N ([3]; 40 nM): 4%
- Percent in Cell Cycle Phase Apop ([3]; 40 nM): 11%
- Percent in Cell Cycle Phase G1 ([3]; 40 nM): 16%
- Percent in Cell Cycle Phase G2/M ([3]; 40 nM): 48%
- Percent in Cell Cycle Phase S ([3]; 40 nM): 22%
- Percent in Cell Cycle Phase >4N ([3]; 50 nM): 4%
- Percent in Cell Cycle Phase Apop ([3]; 50 nM): 11%
- Percent in Cell Cycle Phase G1 ([3]; 50 nM): 11%
- Percent in Cell Cycle Phase G2/M ([3]; 50 nM): 56%
- Percent in Cell Cycle Phase >4N ([3]; 100 nM): 3%
- Percent in Cell Cycle Phase Apop ([3]; 100 nM): 15%
- Percent in Cell Cycle Phase G1 ([3]; 100 nM): 11%
- Percent in Cell Cycle Phase G2/M ([3]; 100 nM): 55%
- Percent in Cell Cycle Phase S ([3]; 100 nM): 16%
